Patent US11453674B2, “Heterocyclic compound, preparation method and use thereof in medicine” (SUZHOU SINOVENT PHARMACEUTICALS CO., LTD., priority 2019, dated 2022)

Experiments:
[1] = system: primary human hepatocytes; experiment: Cytotoxicity assay on primary human hepatocytes (CellTiter-Glo, 48 h); assay type: cell-based; conditions: Hepatocyte, cell viability, 48 h incubation
Procedure: Example 26: Cytotoxicity Assay of Compounds on Primary Human Hepatocytes
Primary human hepatocytes were purchased from Biorecamation IVT. Co., Ltd. (lot no.: AKB/S1391); the components of in vitro culture media of primary human cell and suppliers are as follows:
1. Frozen primary human hepatocytes were thawed, then resuspended in a culture medium containing 10% FBS. The cells were transferred into a 96-well plate, at 8×10^4 cells/well, followed by incubating overnight in an incubator at 5% CO2 at 37° C.;
2. […] The test compounds and control drug were added to wells, at 100 μL/well, to form test compound wells or reference wells, and the culture medium containing 10% FBS was added to wells, at 100 μL/well, as negative control. The cells were incubated in an incubator in the presence of 5% CO2 at 37° C. for 48 h.
3. The primary human hepatocytes were washed with PBS (0.1 M, pH=7.4) twice, and were added with CellTiter-Glo reagent at 100 μL/well. Cell-free wells added with CellTiter-Glo reagent at 100 μL/well served as the blank control. The 96-well plate was shaken on a shaker for 5 min, and then left at room temperature for 10 min.
4. The chemiluminescence values were detected using Victor X4 (Perkin Elmer). The chemiluminescence values of the test compound wells were denoted as F(test compound), the chemiluminescence values of the blank control wells were denoted as F(blank), and the chemiluminescence values of the negative control wells were denoted as F(negative control). The cell viabilities at different concentrations were calculated according to the following formula. Each concentration was measured in triplicate to give the average and the standard deviation.
5. The half maximal inhibitory concentration (IC50) of the test compounds to the primary human hepatocytes were calculated using Prism Graph software.

[2] = target: T1, hURAT1 (Homo sapiens, UniProt Q96S37); experiment: Inhibition of 14C-uric acid uptake by hURAT1 in HEK293-transfected cells; assay type: cell-based; conditions: HEK-293T cells stably expressing hURAT1, 14C-uric acid uptake, 5 min at 37° C.
T1 construct: expressed in transfected cells
T1 sequence (Q96S37 1-553): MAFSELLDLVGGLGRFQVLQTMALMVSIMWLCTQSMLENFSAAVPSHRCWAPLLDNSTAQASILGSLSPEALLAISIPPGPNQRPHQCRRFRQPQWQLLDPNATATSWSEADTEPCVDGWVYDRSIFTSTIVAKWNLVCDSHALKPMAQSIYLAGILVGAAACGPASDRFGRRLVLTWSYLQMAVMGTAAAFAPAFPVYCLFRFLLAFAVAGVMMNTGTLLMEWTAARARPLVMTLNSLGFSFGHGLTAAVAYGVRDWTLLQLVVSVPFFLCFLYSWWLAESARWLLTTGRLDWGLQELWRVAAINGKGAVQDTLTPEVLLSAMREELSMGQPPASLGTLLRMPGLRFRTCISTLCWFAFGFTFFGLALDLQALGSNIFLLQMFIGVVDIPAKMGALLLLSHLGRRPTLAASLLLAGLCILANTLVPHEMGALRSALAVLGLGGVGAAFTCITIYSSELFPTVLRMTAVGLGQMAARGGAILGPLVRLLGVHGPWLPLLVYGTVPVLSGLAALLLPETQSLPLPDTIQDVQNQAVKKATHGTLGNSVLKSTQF
Procedure: 1. Cell Culture and Inoculation
2) When the cells covered 80% of the culture medium, the culture medium was removed. The cells were washed with PBS once, followed by digestion with pancreatin-EDTA. After detachment, the cells were added with a culture medium, exfoliated by pipetting, and centrifuged for harvesting. The harvested cells were added with a culture medium and mixed well to give a cell suspension.
3) The cell density was adjusted to 3×10^5 cells/mL, transferred into a white-wall, clear-bottom, 96-well cell culture plate with 100 μL/well, and incubated for 12-24 h.
1) A 20 mM stock solution of the compound was prepared with DMSO. Then the stock solution was diluted to a starting concentration of 2 mM with DMSO.
2) The solution was serially 4-fold diluted with DMSO from […] to the 10th concentration on a 96-well plate serving as the 100× plate, and respective quality controls were prepared.
3) The solutions in corresponding wells were 10-fold diluted with Cl-free HBSS buffer on another 96-well plate serving as the 10× plate.
4) Buffer containing 0.1 μCi/mL ^14C-uric acid, at 45 μL/well, and a 10× diluted compound, at 5 μL/well, were added to a third 96-well plate serving as the 1× plate for later use. The concentration of DMSO was 1%.
3. Uptake of ^14C-Uric Acid in Cells Stably Expressing hURAT1
1) The uptake assay was performed after the cultivated cells in 96-well plates adhered.
2) The cells were washed once with pre-heated buffer at 200 μL/well.
3) After the wells were dried, corresponding compounds (50 μL/well) and 0.1 μCi/mL ^14C-uric acid were immediately added.
4) The plate with the compound was incubated in a 37° C. incubator for 5 min.
5) 150 μL of ice-cold buffer was added to each well to terminate the uptake. Each well was washed three times with buffer. The cells were carefully washed to avoid detachment.
6) 50 μL of lysis buffer was added to each well, prior to shaking at 900 rpm on an oscillator for 5 min.
7) 150 μL of scintillation solution (Microint 40) was added to each well before shaking at 900 rpm for 5 min.
8) Finally, the microwell plate was transferred to a MicroBeta Trilux (PerkinElmer Co. Ltd.) for detection.
The data were analyzed and the IC50 of the quality controls and all test compounds on the plates were calculated using XL-fit software.

Row | SMILES | IC50 [1] [nM] | IC50 [2] [nM]
1 | CCc1oc2ccccc2c1C(=O)c1cc(Br)c(O)c(Br)c1 [Benzbromarone, reference compound] | 6650 | 
2 | CCc1oc2ccncc2c1C(=O)c1cc(Br)c(O)c(Br)c1 [Example 1, (3,5-dibromo-4-hydroxyphenyl)(2-ethylfuro[3,2-c]pyridin-3-yl) methanone] |  | < 50
3 | CCn1nc2ccc(F)cc2c1C(=O)c1cc(Br)c(O)c(Br)n1 [Example 8, (4,6-dibromo-5-hydroxypyridin-2-yl)(2-ethyl-5-fluoro-2H-indazol-3-yl)methanone] |  | 50 to 200
